# Reference: patent US20150056702A1, “METHOD AND KIT FOR CULTURING STEM CELLS” (China Medical University, priority 2013, published 2015)
# Columns and labels:
# Format in all cases: cell-based, mouse
# [1] = tested on: Jak2; experiment: Western blot assay, Jak2 protein in ES cells; details: for Jak2 Protein expression level: ES cells, control group = 100%
# Source text: According to the known research at present, Jak2 and Stat3 proteins could be phosphorylated to form the active forms, and the Jak2-Stat3 signaling pathway will be activated when Jak2 and Stat3 were phosphorylated.
# An experimental group medium (BP5 or BP10), a LIF-containing medium (without BP), and a control group medium (without BP) were used respectively to culture ES cells with an initial density of 1×10^4 per well in a 6-well culture dish. The medium was removed until the cells growth to be about 70 to 80% confluence. The proteins were extracted to conduct the Western blot assay by using rabbit anti-Jak2 antibody (Cell Signaling Technology), mouse anti-phospho-Jak2 antibody (Cell Signaling Technology), rabbit anti-Stat3 antibody (BD) and rabbit anti-phospho-Stat3 antibody (Cell Signaling Technology), to determine whether BP would affect the protein expression levels of the genes in the Jak-Stat3 signaling pathway.
# [2] = tested on: Nanog; experiment: Immunofluorescence staining, Nanog in ES cells; details: for Nanog expression level: ES cells, 72 hours, control group = 100%
# Source text: Nanog and SSEA1 are also marker proteins of stem cells, and their expression levels could be measured by immunofluorescence staining to further confirm whether BP can effectively maintain the self-renewal and pluripotency of stem cells.
# An experimental group medium (BP5, BP10, BP20 or BP40), a LIF-containing medium (without BP), and a control group medium (without BP) were used respectively in a 6-well culture dish which comprises a slide in each well to culture ES cells with an initial density of 1×10^4 per well for 72 hours. The medium was removed and the cells were washed with PBS. Next, PBS was removed, and then 4% paraformaldehyde was added to perform the fixation at room temperature for 10 minutes. Next, paraformaldehyde was removed, and then slides were washed with 0.1% Tween-20/1X PBS three times for 10 minutes each time. The 0.3% Tween-20/1X PBS was added and held at room temperature for 30 minutes to penetrate the cell membrane to benefit the dye entry. After the slides were washed three times with 0.1% Tween-20, 5% FBS/1×PBS was added to perform a blocking reaction at room temperature for 2 hours, and then reacting with the primary antibody [anti-Nanog (Novus) or anti-SSEA1 (Millipore)] at a dilution of 1:100 at room temperature overnight. Slides were then washed 5 times with 0.1% Tween-20, then reacting with the secondary antibody [FITC-conjugated anti-mouse IgG or TRITC-conjugated anti-rabbit IgG (Sigma-Aldrich)] at a dilution of 1:500. After washed with 0.1% Tween-20 for 10 minutes, slides were mounted with the DAPI-containing UltraCruz™ Mounting medium and observed using an inverted fluorescent microscope.
# [3] = tested on: IL5; experiment: Real-time PCR, cytokine gene IL5 in ES cells; details: for IL5 mRNA expression level: ES cells, control group = 100%
# Protocol: (§1) An experimental group medium (BP5, BP10, BP20 or BP40) and a control group medium (without BP) were added respectively to perform the following steps. ES cells were cultured with an initial density of 1×10^4 per well in a 6-well culture dish. The medium was removed until the cells growth to be about 70 to 80% confluence, and then 1 ml TRIzol (Invitrogen) was added into each well. The cells were incubated for 5 minutes, and then was scraped by a spatula and placed into a 1.5 ml microtube to be lysed adequately. Chloroform (0.2 ml) was added into the microtubes. The mixture was shaken up and down for 15 seconds, and then incubated at room temperature for 2 to 3 minutes. Thereafter, the mixture was centrifuged at 12000 rpm at 4° C. for 15 minutes, and the supernatant was removed into another 1.5 ml microtube and isopropanol (0.5 ml) was added into the microtube with well mixing. The mixture was incubated at room temperature for 10 minutes and then centrifuged at 12000 rpm at 4° C. for 10 minutes. The supernatant was then removed. One ml of 70% ethanol containing DEPC.H2O was used to wash the remaining sediment. The sediment was centrifuged at 7500 rpm at 4° C. for 5 minutes. The supernatant was removed. The sediment was dried by vacuum suction. The dried samples were dissolved in about 0.01 to 0.02 ml of DEPC.H2O to obtain the experimental group RNA and control group RNA. Both groups were stored at −80° C.
# (§2) The OD value of RNA samples in both groups obtained from the above Experiment I were measured at a wavelength of 260 nm (RNA: OD260=1 for a 40 μg/mL solution). Each RNA sample (2 μl) was added with RNA-free water until the volume of the sample reached 10 μl. Two μl oligo (dT) (100 μg/ml) was added into each sample, and the samples were incubated at 65° C. for 5 minutes. Then, the samples were immediately placed on ice and spun down. Next, 6.5 μl of a reaction solution [4 μl of 5× buffer+1 μl of 0.1 M DTT+1 μl of RNase out+0.5 μl of SSIII (Invitrogen)] was added into each of the samples, and the samples were incubated at 50° C. for about 30 to 60 minutes and at 75° C. for 15 minutes to obtain the experimental group cDNA and control group cDNA. Both groups were stored at −80° C.
# (§3) This experiment was used to detect the expression levels of ES cell-related genes, i.e., Oct4 and Sox2, etc. First, 4 μl of the experimental group cDNA or control group cDNA was added into each well of a 96-well micro-reaction plate, and mixed with 6 μl of a reaction solution [0.5 μl of 6 μM forward primer+0.5 μl of 6 μM reverse primer+5 μl of SYBR Green PCR Master mix (Roche)], wherein the SYBR Green PCR Master mix included the reagents needed for Q-PCR, such as dNTPs, MgCl, Taq DNA polymerase and 2×SYBR® Green I solution. […] The cycle threshold (CT) values were measured. […]
# [4] = tested on: EGF; experiment: Real-time PCR, cytokine gene EGF in ES cells; details: for EGF mRNA expression level: ES cells, control group = 100%
# Protocol: as §1, §2, §3
# [5] = LIF-containing medium (LIF 4 ng/ml, without BP)
# [6] = LIF-containing medium (LIF 4 ng/ml)
# [7] = BP10 medium (about 10 μg BP/ml)
# [8] = BP-containing ES cell medium, result in words
Molecule,"Jak2 Protein expression level [1, 5] [%]","Nanog expression level [2, 5] [%]","IL5 mRNA expression level [3, 6] [%]","EGF mRNA expression level [4, 6] [%]",Jak2 Protein expression level ([1]; BP5 medium (about 5 μg BP/ml)) [%],"Jak2 Protein expression level [1, 7] [%]","total protein expression and phosphorylated protein expression level of Jak2 ([1]; ES cell medium containing BP, result in words)",Nanog expression level ([2]; BP5 medium (about 5 μg BP/ml)) [%],"Nanog expression level [2, 7] [%]",Nanog expression level ([2]; BP20 medium (about 20 μg BP/ml)) [%],Nanog expression level ([2]; BP40 medium (about 40 μg BP/ml)) [%],"expression level of Nanog ([2]; BP-containing ES cell medium vs control group (without BP), result in words)",IL5 mRNA expression level ([3]; BP5 medium (about 5 μg BP/ml)) [%],"IL5 mRNA expression level [3, 7] [%]","mRNA expression level of IL-5 [3, 8]",EGF mRNA expression level ([4]; BP5 medium (about 5 μg BP/ml)) [%],"EGF mRNA expression level [4, 7] [%]","mRNA expression level of EGF [4, 8]"
"LIF: multifunctional cell factor used to maintain pluripotency of stem cells; LIF-containing medium (4 ng/ml, without BP) as comparison",62,204.46,35,145,–,–,–,–,–,–,–,–,–,–,–,–,–,–
"CCCC=C1OC(=O)c2ccccc21 [BP, n-butylidenephthalide]",–,–,–,–,109,134,increased significantly,113.22,183.28,213.8,212.83,higher,65,175,significantly up-regulated,110,204,significantly up-regulated
